Residues, ends and D or L forms follow the SMILES beside them.
Experiments:
SCRIB PDZ1 (SCRIB-1) [1] = molecular target: T1, SCRIB PDZ1 (SCRIB-1) (Homo sapiens, UniProt Q14160); assay: Fluorescence polarization competition, SCRIB-1; format: binding
MAGI1 PDZ2 (MAGI1–2) [2] = molecular target: T2, MAGI1 PDZ2 (MAGI1–2) (Homo sapiens, UniProt Q96QZ7); assay: Fluorescence polarization competition; format: binding
SNX27 PDZ (SNX27) = SNX27 PDZ (SNX27) (Rattus norvegicus, UniProt Q8K4V4); assay: Fluorescence polarization competition, SNX27; format: binding
PTPN3 PDZ (PTPN3) [3] = molecular target: T3, PTPN3 PDZ (PTPN3) (Homo sapiens, UniProt P26045); assay: Fluorescence polarization competition; format: binding
T3 sequence (P26045 505-597): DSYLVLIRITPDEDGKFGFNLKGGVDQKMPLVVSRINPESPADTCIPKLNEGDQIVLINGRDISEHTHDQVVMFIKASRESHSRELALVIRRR

NHERF2 PDZ2 (N2P2) = NHERF2 PDZ2 (N2P2) (Homo sapiens, UniProt Q15599); assay: Fluorescence polarization competition, N2P2
NHERF1 PDZ1 (N1P1) = molecular target: T4, NHERF1 PDZ1 (N1P1) (Homo sapiens, UniProt O14745); assay: Fluorescence polarization competition, N1P1
T4 sequence (O14745 1-139): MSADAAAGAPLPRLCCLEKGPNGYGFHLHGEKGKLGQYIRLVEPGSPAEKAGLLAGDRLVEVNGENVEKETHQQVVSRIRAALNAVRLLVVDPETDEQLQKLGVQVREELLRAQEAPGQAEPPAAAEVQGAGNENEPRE

DLG1 PDZ1 (DLG1–1) [4] = molecular target: T5, DLG1 PDZ1 (DLG1–1) (Homo sapiens, UniProt Q12959); assay: Fluorescence polarization competition, DLG1–1; format: binding
SCRIB PDZ1 (SCRIB-1) [5] = molecular target: T1, SCRIB PDZ1 (SCRIB-1); assay: Fluorescence polarization direct binding of reporter peptide, SCRIB-1
DLG1 PDZ1 (DLG1–1) [6] = molecular target: T5, DLG1 PDZ1 (DLG1–1); assay: Fluorescence polarization direct binding of reporter peptide, DLG1–1
MAGI1 PDZ2 (MAGI1–2) [7] = molecular target: T2, MAGI1 PDZ2 (MAGI1–2); assay: Fluorescence polarization direct binding of reporter peptide, MAGI1–2
PTPN3 PDZ (PTPN3) [8] = molecular target: T3, PTPN3 PDZ (PTPN3); assay: Fluorescence polarization direct binding of reporter peptide, PTPN3
TIP-1 PDZ = molecular target: T6, TIP-1 PDZ (Homo sapiens, UniProt O14907); assay: Fluorescence polarization competition, TIP-1 PDZ
T6 sequence (O14907 9-120): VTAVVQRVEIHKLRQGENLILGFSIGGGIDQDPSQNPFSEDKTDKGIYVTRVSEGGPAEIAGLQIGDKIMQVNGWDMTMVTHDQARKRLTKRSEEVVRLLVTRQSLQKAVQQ

CAL PDZ = CAL PDZ (Homo sapiens, UniProt Q9HD26); assay: Fluorescence polarization competition, CAL PDZ

Work on `CC(C)C[C@H](NC(=O)[C@H](CCC(N)=O)NC(=O)[C@@H](NC(=O)[C@H](CC(=O)O)NC(=O)[C@H](CCC(N)=O)NC(=O)[C@@H](NC(=O)[C@@H](NC(=O)[C@H](CCCNC(=N)N)NC(=O)[C@H](CO)NC(=O)[C@@H](N)CO)[C@@H](C)O)C(C)C)[C@@H](C)O)C(=O)O` [CFTRP1Q] (H-SSRTVQDTQL-OH) yielded a Ki (SCRIB PDZ1 (SCRIB-1) [1]) of 150 ± 60 µM, an IC50 (MAGI1 PDZ2 (MAGI1–2) [2]) of 420 ± 210 µM and a Ki (SNX27 PDZ (SNX27)) of 0.26 ± 0.05 µM. For the same molecule, the IC50 (PTPN3 PDZ (PTPN3) [3]) was 51 ± 14 µM, the Ki (NHERF2 PDZ2 (N2P2)) was 3.1 ± 0.5 µM and the Ki (NHERF1 PDZ1 (N1P1)) was 25 ± 7 µM. The Ki (DLG1 PDZ1 (DLG1–1) [4]) was 250 ± 150 µM.
`CC(C)C[C@H](NC(=O)[C@H](CCCNC(=N)N)NC(=O)[C@@H](NC(=O)[C@H](CC(=O)O)NC(=O)[C@H](CCCNC(=N)N)NC(=O)[C@@H](NC(=O)[C@@H](NC(=O)[C@H](CCCNC(=N)N)NC(=O)[C@H](CO)NC(=O)[C@@H](N)CO)[C@@H](C)O)C(C)C)[C@@H](C)O)C(=O)O` [CFTRP4R] (H-SSRTVRDTRL-OH) showed a Ki (SCRIB PDZ1 (SCRIB-1) [1]) of 370 ± 170 µM, an IC50 (MAGI1 PDZ2 (MAGI1–2) [2]) of 460 ± 200 µM and a Ki (SNX27 PDZ (SNX27)) of 0.44 ± 0.06 µM. The IC50 (PTPN3 PDZ (PTPN3) [3]) was 85 ± 39 µM, the Ki (NHERF2 PDZ2 (N2P2)) was 1.7 ± 0.5 µM and the Ki (NHERF1 PDZ1 (N1P1)) was 6.9 ± 2.7 µM. It also gave a Ki (DLG1 PDZ1 (DLG1–1) [4]) of 510 ± 230 µM.
Molecule `CC(C)C[C@H](NC(=O)[C@H](CCCNC(=N)N)NC(=O)[C@@H](NC(=O)[C@H](CC(=O)O)NC(=O)[C@H](CCC(N)=O)NC(=O)[C@H](CCCNC(=N)N)NC(=O)[C@@H](NC(=O)[C@H](CCCNC(=N)N)NC(=O)[C@H](CO)NC(=O)[C@@H](N)CO)[C@@H](C)O)[C@@H](C)O)C(=O)O` [CFTRP5R] (H-SSRTRQDTRL-OH) has a Ki (SCRIB PDZ1 (SCRIB-1) [1]) of 50 ± 10 µM, an IC50 (MAGI1 PDZ2 (MAGI1–2) [2]) of 220 ± 50 µM and a Ki (SNX27 PDZ (SNX27)) of 7.4 ± 4.5 µM. It also gave an IC50 (PTPN3 PDZ (PTPN3) [3]) of 120 ± 20 µM, a Ki (NHERF2 PDZ2 (N2P2)) of 0.49 ± 0.38 µM and a Ki (NHERF1 PDZ1 (N1P1)) of 1.8 ± 0.3 µM. The Ki (DLG1 PDZ1 (DLG1–1) [4]) was 430 ± 200 µM.
For `CC(C)C[C@H](NC(=O)[C@H](CCC(N)=O)NC(=O)[C@@H](NC(=O)[C@H](CCC(=O)O)NC(=O)[C@H](CCCNC(=N)N)NC(=O)[C@H](CCCNC(=N)N)NC(=O)[C@@H](NC(=O)[C@H](CCCNC(=N)N)NC(=O)[C@H](CO)NC(=O)[C@H](CO)NC(=S)Nc1ccc2c(c1)C(=O)OC21c2ccc(O)cc2Oc2cc(O)ccc21)[C@@H](C)O)[C@@H](C)O)C(=O)O` [F*-HPV16 E6], the Kd (SCRIB PDZ1 (SCRIB-1) [5]) was 5.1 ± 1.7 µM, the Kd (DLG1 PDZ1 (DLG1–1) [6]) was 17 ± 4 µM and the Kd (MAGI1 PDZ2 (MAGI1–2) [7]) was 12 ± 4 µM. For the same molecule, the Kd (PTPN3 PDZ (PTPN3) [8]) was 2 ± 1 µM.
For `CC(C)C[C@H](NC(=O)[C@H](CCC(N)=O)NC(=O)[C@@H](NC(=O)[C@H](CCC(=O)O)NC(=O)[C@H](CCCNC(=N)N)NC(=O)[C@H](CCCNC(=N)N)NC(=O)[C@@H](NC(=O)[C@H](CCCNC(=N)N)NC(=O)[C@H](CO)NC(=O)[C@@H](N)CO)[C@@H](C)O)[C@@H](C)O)C(=O)O` [HPV16 E6], the Ki (TIP-1 PDZ) was 11 ± 1 µM, the Ki (SCRIB PDZ1 (SCRIB-1) [1]) was 20 ± 7 µM and the IC50 (MAGI1 PDZ2 (MAGI1–2) [2]) was 3.7 ± 0.1 µM. For the same molecule, the Ki (SNX27 PDZ (SNX27)) was 1.5 ± 0.5 µM, the IC50 (PTPN3 PDZ (PTPN3) [3]) was 10.1 µM and the Ki (NHERF2 PDZ2 (N2P2)) was 17 ± 6 µM. For the same molecule, the Ki (NHERF1 PDZ1 (N1P1)) was 100 ± 50 µM and the Ki (DLG1 PDZ1 (DLG1–1) [4]) was 22 ± 12 µM.
`CC(C)C[C@H](NC(=O)[C@H](CCCNC(=N)N)NC(=O)[C@@H](NC(=O)[C@H](CCC(=O)O)NC(=O)[C@H](CCCNC(=N)N)NC(=O)[C@H](CCCNC(=N)N)NC(=O)[C@@H](NC(=O)[C@H](CCCNC(=N)N)NC(=O)[C@H](CO)NC(=O)[C@@H](N)CO)[C@@H](C)O)[C@@H](C)O)C(=O)O` [HPVP1R] (H-SSRTRRETRL-OH) showed a Ki (TIP-1 PDZ) of 22 ± 5 µM, a Ki (SCRIB PDZ1 (SCRIB-1) [1]) of 13 ± 2 µM and an IC50 (MAGI1 PDZ2 (MAGI1–2) [2]) of 5.2 ± 2.4 µM. For the same molecule, the Ki (CAL PDZ) was 42 ± 10 µM, the Ki (SNX27 PDZ (SNX27)) was 2.1 ± 0.7 µM and the IC50 (PTPN3 PDZ (PTPN3) [3]) was 18 ± 1 µM. It also gave a Ki (NHERF2 PDZ2 (N2P2)) of 6.9 ± 1.1 µM, a Ki (NHERF1 PDZ1 (N1P1)) of 8.8 ± 3.4 µM and a Ki (DLG1 PDZ1 (DLG1–1) [4]) of 39 ± 11 µM.
Work on `CC(C)C[C@H](NC(=O)[C@H](CCC(N)=O)NC(=O)[C@@H](NC(=O)[C@H](CCC(=O)O)NC(=O)[C@H](CCC(N)=O)NC(=O)[C@H](CCCNC(=N)N)NC(=O)[C@@H](NC(=O)[C@H](CCCNC(=N)N)NC(=O)[C@H](CO)NC(=O)[C@@H](N)CO)[C@@H](C)O)[C@@H](C)O)C(=O)O` [HPVP4Q] (H-SSRTRQETQL-OH) yielded a Ki (TIP-1 PDZ) of 34 ± 2 µM, a Ki (SCRIB PDZ1 (SCRIB-1) [1]) of 13 ± 2 µM and an IC50 (MAGI1 PDZ2 (MAGI1–2) [2]) of 3.8 ± 2.1 µM. It also gave a Ki (CAL PDZ) of 56 ± 6 µM, a Ki (SNX27 PDZ (SNX27)) of 0.51 ± 0.22 µM and an IC50 (PTPN3 PDZ (PTPN3) [3]) of 18 ± 5 µM. For the same molecule, the Ki (NHERF2 PDZ2 (N2P2)) was 5.2 ± 0.6 µM, the Ki (NHERF1 PDZ1 (N1P1)) was 21 ± 7 µM and the Ki (DLG1 PDZ1 (DLG1–1) [4]) was 23 ± 6 µM.
`CC(C)C[C@H](NC(=O)[C@H](CCC(N)=O)NC(=O)[C@@H](NC(=O)[C@H](CCC(=O)O)NC(=O)[C@H](CCCNC(=N)N)NC(=O)[C@@H](NC(=O)[C@@H](NC(=O)[C@H](CCCNC(=N)N)NC(=O)[C@H](CO)NC(=O)[C@@H](N)CO)[C@@H](C)O)C(C)C)[C@@H](C)O)C(=O)O` [HPVP5V] (H-SSRTVRETQL-OH) showed a Ki (TIP-1 PDZ) of 35 ± 4 µM, a Ki (SCRIB PDZ1 (SCRIB-1) [1]) of 4.5 ± 2.8 µM and an IC50 (MAGI1 PDZ2 (MAGI1–2) [2]) of 4.4 ± 1.1 µM. For the same molecule, the Ki (CAL PDZ) was 190 ± 10 µM, the Ki (SNX27 PDZ (SNX27)) was 0.11 ± 0.03 µM and the IC50 (PTPN3 PDZ (PTPN3) [3]) was 3.4 ± 0.3 µM. The Ki (NHERF2 PDZ2 (N2P2)) was 7 ± 3.6 µM, the Ki (NHERF1 PDZ1 (N1P1)) was 67 ± 28 µM and the Ki (DLG1 PDZ1 (DLG1–1) [4]) was 13 ± 4 µM.
